Test results as given in article PMC11189555, “Aryl amino acetamides prevent Plasmodium falciparum ring development via targeting the lipid-transfer protein PfSTART1” (Nature Communications, 2024).
Like-named read-outs stand apart in the source and are kept apart here.

System: PopD E3 M-833 resistant clone (PfSTART1 N309K)
Test: Growth inhibition assay (72 h, LDH activity)
Assay type: cell-based, Plasmodium falciparum
Protocol: The drug was then removed, and parasites were allowed to recover. Another cycle of drug treatment (3 μM M-833) was then resumed. The resistant lines were cloned out by limiting dilution (diluting the culture into a 96-well plate to achieve an average of ~0.3 parasites per well), prior to growth inhibition assays and genomic DNA (gDNA) extraction (DNeasy Blood and Tissue kit (Qiagen)[18].
Parasite growth assays with inhibitory compounds were performed as per[11] and are fully described in the Supplementary Information.
Molecular biology and transfection of P. falciparum: CRISPR method.
The full 5’ homology region of pfstart1 (either WT, N309K or N330K) was amplified from pPfSTART1-HA-2A-Neo-glmS with the same 5’ BglII primer and a new 3’ primer that replaced with PstI with SpeI and introduced a stop codon. The PCR product was then digested with BglII and SpeI and inserted into similarly digested p1.2 parasite vector2. The p1.2 vector had previously been inserted with a homology region amplified from the 3’ end of the pfstart1 gene (3’HB) to form a second homology block for double recombination. The primers used to amplify 3’HB are listed primers listed in […]
60 μg of p1.2-PfSTART1(WT/N309K/N330K) plasmid was linearised with KasI, precipitated in 3 M sodium acetate and ethanol (70% final concentration) overnight at -20°C. The DNA pellet was washed in cold 70% ethanol and resuspended in cytomix 3.
50 μ M of crRNA ( Table S 2) and 50 μM of tracRNA (Integrated DNA Technologies) were allowed to form a duplex (5 min at 95°C), and Cas9 enzyme (Integrated DNA Technologies) was added, and incubated for 20 min at room temperature 4. This crRNA -tracRNA -Cas9 mix was added to each DNA preparation and transfected to 3D7 ring parasites using the Bio -Rad Gene Pulser at 310 V and 950 μF.
Parasites containing the transfected DNA were selected using 2.5 nM WR99210 (Jacobus). Parasites lines were cloned using limiting dilution. Correct integration was tested by PCR (using primer START_5’UTR.F and START_Int.R1 , Table S 2), and sequencing was done using the primers START_3F and START_Int.R2 (Table S 2).
Growth inhibition assays. Synchronised ring-stage parasites (0.3-0.6% parasitemia, 2% haematocrit) were grown for 72 h in a serial-dilution of the compound under […]
and compound 4. Note that M-833 was first purchased from MolPort (MolPort -002-267-916) then made in-house at WEHI: the differences observed in EC50s across experiments are attributed to the different batches of M -833. For some experiments, 0, 0.25 or 2.5 mM of glucosamine (GlcN) was also added. Experiments were set up in technical duplicates or triplicates. Following a freeze -thaw cycle, lactate dehydrogenase (LDH) activity was assessed as an indicator of parasite growt h 5. 30 μL of parasite culture was incubated for 30 min in the dark with 75 μL Malstat mixture (0.1 M Tris pH 9.0, 20 g/L lactic acid, pH 7.5, 0.2% Triton-X100, 0.5 g/L acetylpyridine adenine dinucleotide (APAD, Sigma), 200 μg/mL nitroblue tetrazolium (NBT; Sigma), 1 μg/mL phenozine ethosulfate (PES; Sigma)). Absorbance was then measured at 650 nm, transformed using the formula below, plotted against the logarithm of the concentrations, and a non-linear regression (log(inhibitor) vs. response, variable slope) was calculated using GraphPad Prism to assess the half-inhibitory […]
Growth inhibition % = (1 − average(sample)− average(uRBC)) ∗ 100 […]
The DMSO samples were also used to assess growth of parasite in the presence of 0.25 and 2.5 mM GlcN (normalised by DMSO in 0 mM GlcN).
Egress, invasion & recovery assay. To measure egress, invasion and follow up recovery in the presence of different compounds, we adapted the method developed in6, using Hyp1-Nluc parasites7. These parasites episomally express the exported PEXEL protein Hyp1 (PF3D7_0113300) tagged with a NanoLuc luciferase (NLuc) and were selected with 2.5 nM WR99210 (Jacobus). Highly synchronised schizonts were […]

## Cc1cc(Cl)c(S(=O)(=O)N2CCCC2)cc1OCC(=O)NC1CCCCC1 [M-833]
M-833 0.0390625 uM, Pop D-E3 replicate 1
  Normalised to DMSO: 112.377
M-833 0.0390625 uM, Pop D-E3 replicate 3
  Normalised to DMSO: 111.25
M-833 0.078125 uM, Pop D-E3 replicate 1
  Normalised to DMSO: 99.4191
M-833 0.078125 uM, Pop D-E3 replicate 3
  Normalised to DMSO: 110.5
M-833 0.15625 uM, Pop D-E3 replicate 1
  Normalised to DMSO: 107.328
M-833 0.15625 uM, Pop D-E3 replicate 3
  Normalised to DMSO: 114.438
M-833 0.3125 uM, Pop D-E3 replicate 1
  Normalised to DMSO: 106.122
M-833 0.3125 uM, Pop D-E3 replicate 3
  Normalised to DMSO: 114.625
M-833 0.625 uM, Pop D-E3 replicate 1
  Normalised to DMSO: 101.028
M-833 0.625 uM, Pop D-E3 replicate 3
  Normalised to DMSO: 107.875
M-833 1.25 uM, Pop D-E3 replicate 1
  Normalised to DMSO: 86.6399
M-833 1.25 uM, Pop D-E3 replicate 3
  Normalised to DMSO: 110.688
M-833 2.5 uM, Pop D-E3 replicate 1
  Normalised to DMSO: 72.8552
M-833 2.5 uM, Pop D-E3 replicate 3
  Normalised to DMSO: 90.4375
M-833 5 uM, Pop D-E3 replicate 1
  Normalised to DMSO: 44.37
M-833 5 uM, Pop D-E3 replicate 3
  Normalised to DMSO: 73.375
M-833 10 uM, Pop D-E3 replicate 1
  Normalised to DMSO: 23.9276
M-833 10 uM, Pop D-E3 replicate 3
  Normalised to DMSO: 62.6875
Plasmodium falciparum, M-833 0.0390625 uM, Pop D-E3 replicate 1, read-out: % Inhibition
  inhibition at 0.0390625 µM: -12.4%
Plasmodium falciparum, M-833 0.0390625 uM, Pop D-E3 replicate 3, read-out: % Inhibition
  inhibition at 0.0390625 µM: -11.2%
Plasmodium falciparum, M-833 0.078125 uM, Pop D-E3 replicate 1, read-out: % Inhibition
  inhibition at 0.078125 µM: 0.581%
Plasmodium falciparum, M-833 0.078125 uM, Pop D-E3 replicate 3, read-out: % Inhibition
  inhibition at 0.078125 µM: -10.5%
Plasmodium falciparum, M-833 0.15625 uM, Pop D-E3 replicate 1, read-out: % Inhibition
  inhibition at 0.15625 µM: -7.33%
Plasmodium falciparum, M-833 0.15625 uM, Pop D-E3 replicate 3, read-out: % Inhibition
  inhibition at 0.15625 µM: -14.4%
Plasmodium falciparum, M-833 0.3125 uM, Pop D-E3 replicate 1, read-out: % Inhibition
  inhibition at 0.3125 µM: -6.12%
Plasmodium falciparum, M-833 0.3125 uM, Pop D-E3 replicate 3, read-out: % Inhibition
  inhibition at 0.3125 µM: -14.6%
Plasmodium falciparum, M-833 0.625 uM, Pop D-E3 replicate 1, read-out: % Inhibition
  inhibition at 0.625 µM: -1.03%
Plasmodium falciparum, M-833 0.625 uM, Pop D-E3 replicate 3, read-out: % Inhibition
  inhibition at 0.625 µM: -7.88%
Plasmodium falciparum, M-833 1.25 uM, Pop D-E3 replicate 1, read-out: % Inhibition
  inhibition at 1.25 µM: 13.4%
Plasmodium falciparum, M-833 1.25 uM, Pop D-E3 replicate 3, read-out: % Inhibition
  inhibition at 1.25 µM: -10.7%
Plasmodium falciparum, M-833 2.5 uM, Pop D-E3 replicate 1, read-out: % Inhibition
  inhibition at 2.5 µM: 27.1%
Plasmodium falciparum, M-833 2.5 uM, Pop D-E3 replicate 3, read-out: % Inhibition
  inhibition at 2.5 µM: 9.56%
Plasmodium falciparum, M-833 5 uM, Pop D-E3 replicate 1, read-out: % Inhibition
  inhibition at 5 µM: 55.6%
Plasmodium falciparum, M-833 5 uM, Pop D-E3 replicate 3, read-out: % Inhibition
  inhibition at 5 µM: 26.6%
Plasmodium falciparum, M-833 10 uM, Pop D-E3 replicate 1, read-out: % Inhibition
  inhibition at 10 µM: 76.1%
Plasmodium falciparum, M-833 10 uM, Pop D-E3 replicate 3, read-out: % Inhibition
  inhibition at 10 µM: 37.3%
Plasmodium falciparum, Pop D-E3 replicate 1, M-833 0.0390625 uM
  inhibition at 0.0390625 µM: 2.67%
Plasmodium falciparum, Pop D-E3 replicate 1, M-833 0.078125 uM
  inhibition at 0.078125 µM: -1.86%
Plasmodium falciparum, Pop D-E3 replicate 1, M-833 0.15625 uM
  inhibition at 0.15625 µM: 1.05%
Plasmodium falciparum, Pop D-E3 replicate 1, M-833 0.3125 uM
  inhibition at 0.3125 µM: 2.17%
Plasmodium falciparum, Pop D-E3 replicate 1, M-833 0.625 uM
  inhibition at 0.625 µM: 5.06%
Plasmodium falciparum, Pop D-E3 replicate 1, M-833 1.25 uM
  inhibition at 1.25 µM: 17.9%
Plasmodium falciparum, Pop D-E3 replicate 1, M-833 2.5 uM
  inhibition at 2.5 µM: 29.5%
Plasmodium falciparum, Pop D-E3 replicate 1, M-833 5 uM
  inhibition at 5 µM: 46.7%
Plasmodium falciparum, Pop D-E3 replicate 1, M-833 10 uM
  inhibition at 10 µM: 65.4%
Plasmodium falciparum, read-out: EC50 (95% confidence interval)
  EC50: 3.53 µM
Pop D-E3 replicate 1, M-833 0.0390625 uM
  Normalised to DMSO: 97.3266
Pop D-E3 replicate 1, M-833 0.078125 uM
  Normalised to DMSO: 101.86
Pop D-E3 replicate 1, M-833 0.15625 uM
  Normalised to DMSO: 98.9539
Pop D-E3 replicate 1, M-833 0.3125 uM
  Normalised to DMSO: 97.8303
Pop D-E3 replicate 1, M-833 0.625 uM
  Normalised to DMSO: 94.9438
Pop D-E3 replicate 1, M-833 1.25 uM
  Normalised to DMSO: 82.1
Pop D-E3 replicate 1, M-833 2.5 uM
  Normalised to DMSO: 70.5347
Pop D-E3 replicate 1, M-833 5 uM
  Normalised to DMSO: 53.3127
Pop D-E3 replicate 1, M-833 10 uM
  Normalised to DMSO: 34.6377
